Data set [1] has as its system C. krusei ATCC 6258. The data set can be described thus: MIC, CLSI M27 broth microdilution. In kind it is cell-based, Candida krusei. The settings on record: C. krusei ATCC 6258, EOs and terpenes; for MIC: Pichia kudriavzevii, ATCC6258, 24 h, top concentration 256 µg/mL, read-out: GM MIC. The text has this: (§1) The fungal strains used in this study were C. albicans ATCC 10231, C. albicans ATCC 64550, C. parapsilosis ATCC 22019, C. tropicalis ATCC 750, C. tropicalis ATCC 200956 (resistant to azoles and AMB), C. glabrata LMDM 34 (resistant to echinocandins), C. metapsilosis MUM 15.12, C. orthopsilosis MUM 17.13, C. lusitaniae MUM 17.08, C. krusei ATCC 6258 (Issatchenkia orientalis ATCC 6258), and C. auris CDC B11903. Additionally, nine clinical isolates were included: C. parapsilosis Synlab 406 (FLC-resistant) and eight C. auris isolates identified by MALDI-TOF MS (Bruker Daltonics, Bremen, Germany) according to Zhao et al.. These yeasts were cultured on Sabouraud Dextrose Agar (SDA; Sigma-Aldrich, St. Louis, MO, USA) for 24 h at 35 °C.
(§2) Antifungal susceptibility testing was performed according to Clinical and Laboratory Standards Institute M27, 4th Edition (CLSI standard M27, 4th Edition). Some modifications were applied for evaluation of the antifungal activity of EOs and terpenes. Initially, a screening was carried out to determine the antifungal activity of the EOs and of commercial terpenes. Stock concentrations of EOs and terpenes were prepared at 512 µg/mL and an inoculum of 2.5 × 10^3 CFU/mL of each yeast was prepared in RPMI 1640-MOPS (Sigma- Aldrich St. Louis, MO, USA). Thereafter, 100 µL of each stock solution of EOs or terpenes was dispensed in 96-well microdilution plates (Corning®, Costar®, NY, USA) and 100 µL of each yeast inoculum was added. […] Microdilution plates were incubated at 35 °C and, after 24 h, the presence or absence of growth was visually checked using a manual mirror viewer and then compared with the amount of growth in the control (no EO or terpene). Compounds able to inhibit yeast growth were tested to determine the minimal inhibitory concentration (MIC) as follows: 100 µL of 10 two-fold dilutions of the EOs or commercial terpenes was dispensed in 96-well microplates and the yeast inoculum was added. Final concentrations of the EOs or terpenes ranged from 0.5 µg/mL to 256 µg/mL. Microdilution plates were incubated at 35 °C for 24 h. MICs were visually determined at the lowest concentration that produced visual inhibition compared to the growth control. The assays were performed at least three times in duplicate on different days. The results were expressed as geometric means (GM) and ranges. As an antifungal susceptibility testing control, the activity of ITC and AMB against the reference strains C. krusei ATCC 6258 and C. parapsilosis ATCC 22019 was evaluated in all experiments following the CLSI standard M27, 4th Edition. It was mandatory that the MIC values remained in the accepted range.
For orientation: Dilution methods test growth across graded concentrations, often in twofold steps.

Data set [2] deals with C. tropicalis ATCC 200956. Briefly: MIC, CLSI M27 broth microdilution. In kind it is cell-based, Candida tropicalis. Particulars: C. tropicalis ATCC 200956, EOs and terpenes; for MIC: Candida tropicalis, ATCC200956, 24 h, top concentration 256 µg/mL, read-out: GM MIC.
Text: as §1, §2

The subject of data set [3] is C. metapsilosis MUM 15.12. The data set can be described thus: MIC, CLSI M27 broth microdilution. The settings on record: Lodderomyces metapsilosis, MUM15.12; C. metapsilosis MUM 17.13 (Table 3); EOs and terpenes; 24 h; top concentration 256 µg/mL; read-out: GM MIC. Format: cell-based, Candida metapsilosis.
Text: as §1, §2

The test system of data set [4] is C. orthopsilosis MUM 17.13. Briefly: MIC, CLSI M27 broth microdilution. Format: cell-based, Candida orthopsilosis. The settings on record: Lodderomyces orthopsilosis, MUM17.13; C. orthopsilosis MUM 15.12 (Table 3); EOs and terpenes; 24 h; top concentration 256 µg/mL; read-out: GM MIC.
Text: as §1, §2

The test system of data set [5] is C. lusitaniae MUM 17.08. The data set can be described thus: MIC, CLSI M27 broth microdilution. In kind it is cell-based, Candida lusitaniae. Particulars: C. lusitaniae MUM 17.08, EOs and terpenes; for MIC: Clavispora lusitaniae, MUM17.08, 24 h, top concentration 256 µg/mL, read-out: GM MIC.
Text: as §1, §2

For data set [6], the system named is C. auris CDC B11903. Briefly: MIC, CLSI M27 broth microdilution. The settings on record: Candidozyma auris, CDCB11903; C. auris CDC B11903; EOs and terpenes; 24 h; top concentration 256 µg/mL; read-out: GM MIC. Format: cell-based, Candida auris.
Text: as §1, §2

Data set [7] relates to C. auris Ca 13. Briefly: MIC, CLSI M27 broth microdilution. Format: cell-based, Candida auris. Particulars: Candidozyma auris, CA13; C. auris Ca 13; EOs and terpenes; 24 h; top concentration 256 µg/mL; read-out: GM MIC.
Text: as §1, §2

In data set [8] the test system is C. auris Ca 17. Briefly: MIC, CLSI M27 broth microdilution. The settings on record: Candidozyma auris, CA17; C. auris Ca 17; EOs and terpenes; 24 h; top concentration 256 µg/mL; read-out: GM MIC. In kind it is cell-based, Candida auris.
Text: as §1, §2

The subject of data set [9] is C. auris Ca 1. The data set can be described thus: MIC, CLSI M27 broth microdilution. Format: cell-based, Candida auris. The settings on record: C. auris Ca 1, EOs and terpenes.
Text: as §1, §2

Data set [10] relates to C. auris Ca 32. Briefly: MIC, CLSI M27 broth microdilution. In kind it is cell-based, Candida auris. The settings on record: Candidozyma auris, CA32; C. auris Ca 32; EOs and terpenes; 24 h; top concentration 256 µg/mL; read-out: GM MIC.
Text: as §1, §2

The test system of data set [11] is C. auris Ca 41. Briefly: MIC, CLSI M27 broth microdilution. Format: cell-based, Candida auris. The settings on record: Candidozyma auris, CA41; C. auris Ca 41; EOs and terpenes; 24 h; top concentration 256 µg/mL; read-out: GM MIC.
Text: as §1, §2

For data set [12], the system named is C. auris Ca 45. Briefly: MIC, CLSI M27 broth microdilution. In kind it is cell-based, Candida auris. Particulars: Candidozyma auris, CA45; C. auris Ca 45; EOs and terpenes; 24 h; top concentration 256 µg/mL; read-out: GM MIC.
Text: as §1, §2

Data set [13] deals with C. auris Ca 46. The data set can be described thus: MIC, CLSI M27 broth microdilution. In kind it is cell-based, Candida auris. The settings on record: Candidozyma auris, CA46; C. auris Ca 46; EOs and terpenes; 24 h; top concentration 256 µg/mL; read-out: GM MIC.
Text: as §1, §2

Data set [14] has as its system C. auris Ca 9. Briefly: MIC, CLSI M27 broth microdilution. In kind it is cell-based, Candida auris. Particulars: Candidozyma auris, CA9; C. auris Ca 9; EOs and terpenes; 24 h; top concentration 256 µg/mL; read-out: GM MIC.
Text: as §1, §2

The subject of data set [15] is C. parapsilosis Synlab 406. The data set can be described thus: MIC, CLSI M27 broth microdilution. In kind it is cell-based, Candida parapsilosis. Particulars: Lodderomyces parapsilosis, SYNLAB406; C. parapsilosis Synlab 406; EOs and terpenes; 24 h; top concentration 256 µg/mL; read-out: GM MIC.
Text: as §1, §2

Data set [16] concerns Candida spp. Briefly: Screening of antifungal activity at 256 µg/mL against twenty strains. The settings on record: screening at 256 µg/mL. In kind it is cell-based.
Text: as §1
Antifungal susceptibility testing was performed according to Clinical and Laboratory Standards Institute M27, 4th Edition (CLSI standard M27, 4th Edition). Some modifications were applied for evaluation of the antifungal activity of EOs and terpenes. Initially, a screening was carried out to determine the antifungal activity of the EOs and of commercial terpenes. Stock concentrations of EOs and terpenes were prepared at 512 µg/mL and an inoculum of 2.5 × 10^3 CFU/mL of each yeast was prepared in RPMI 1640-MOPS (Sigma- Aldrich St. Louis, MO, USA). Thereafter, 100 µL of each stock solution of EOs or terpenes was dispensed in 96-well microdilution plates (Corning®, Costar®, NY, USA) and 100 µL of each yeast inoculum was added. […] MICs were visually determined at the lowest concentration that produced visual inhibition compared to the growth control. […] The results were expressed as geometric means (GM) and ranges. As an antifungal susceptibility testing control, the activity of ITC and AMB against the reference strains C. krusei ATCC 6258 and C. parapsilosis ATCC 22019 was evaluated in all experiments following the CLSI standard M27, 4th Edition. […]

Data set [17] relates to C. albicans ATCC 10231. The data set can be described thus: Time–kill assay. In kind it is cell-based, Candida albicans. Particulars: 1X and 2X MIC, 24 h. The protocol: (§3) Time–kill assays with the L. origanoides (thymol + p-cymene) chemotype (Code 0018) EO, thymol, FLC, and AMB against C. albicans ATCC 10231, C. tropicalis ATCC 200956, and C. auris CDC B11903 were performed according to the protocol published by Klebser et al. with some modifications. […] Absorbance at λ = 490 nm was measured every 2 h with a Multiskan SkyHigh Microplate Spectrophotometer. AMB and FLC were included as fungicidal and fungistatic control drugs, respectively.

Data set [18] has as its system C. tropicalis ATCC 200956. Briefly: Time–kill assay. Format: cell-based, Candida tropicalis. Particulars: 1X and 2X MIC, 24 h. The protocol:
as §3

The subject of data set [19] is C. auris CDC B11903. Briefly: Time–kill assay. Format: cell-based, Candida auris. The protocol: as §3
Data set [20] concerns C. auris. Also on record: method as in PMID 31980703. Particulars: cited from earlier work.
Data set [21] in a line: Cytotoxicity, MTT assay. Particulars: human, HaCaT keratinocyte cells. A general note: Tetrazolium dyes change colour on reduction, which living cells bring about.
Experimental: Cells were cultured in Dulbecco’s Modified Eagle Medium (DMEM; Sigma-Aldrich, St. Louis, MO, USA) supplemented with 10% fetal bovine serum (Invitrogen, Carlsbad, CA, USA), 1% penicillin, streptomycin, and neomycin (Invitrogen, Carlsbad, CA, USA), and 1% L-glutamine (Invitrogen, Carlsbad, CA, USA) at 37 °C in a humidified atmosphere of 5% CO2. […] Afterwards, the culture medium was removed and 3-(4.5-dimethylthiazol-2-yl)-2.5-diphenyltetrazolium bromide (MTT) (Sigma-Aldrich, St. Louis, MO, USA) at 5 mg/mL was added at 37 °C for 2 h. Subsequently, DMSO was added to dissolve the formazan crystals. Finally, the absorbances were measured with a Multiskan SkyHigh Microplate Spectrophotometer (Thermo Fisher Scientific, Waltham, MA, USA) at λ = 570 nm. The CC50 values were obtained by linear regression analysis with concentration–response curves, which were performed with absorbance data using GraphPad Prism software (Prism 9.3.0, San Diego, CA, USA). The assays were conducted at two separate times in triplicate. The data were expressed as means.

Converted amounts (≈) assume the structure as drawn. “Also recorded” adds a separate entry of the source.

For `Cc1ccc(C(C)C)c(O)c1` [Thymol, thymol], the “Range MIC” value in data set [1] is 128 to 256 µg/mL; in data set [2] it was 64 to 128 µg/mL; in [5] it was 64 to 128 µg/mL; in [9], 128 to 256 µg/mL. Besides, the minimum inhibitory concentration (MIC) (usually the lowest concentration found to suppress growth) in data set [1] was determined as 181 µg/mL (≈ 1200 µM); in data set [2], 90.5 µg/mL (≈ 602 µM); in [3], 128 µg/mL (≈ 852 µM); in data set [4], 128 µg/mL (≈ 852 µM); in data set [5], 90.5 µg/mL (≈ 602 µM); in data set [6], 64 µg/mL (≈ 426 µM). Also, the minimum inhibitory concentration (MIC) in data set [7] stood at 128 µg/mL (≈ 852 µM); in data set [8], 64 µg/mL (≈ 426 µM); in data set [9] (Candidozyma auris, CA1, 24 h, top concentration 256 µg/mL, read-out: GM MIC) it was 181 µg/mL (≈ 1200 µM); in [10], 64 µg/mL (≈ 426 µM); in data set [11], 64 µg/mL (≈ 426 µM); in data set [12], 64 µg/mL (≈ 426 µM). Moreover, the MIC turned out to be 64 µg/mL (≈ 426 µM) in data set [13], 128 µg/mL (≈ 852 µM) in data set [14] and 64 µg/mL (≈ 426 µM) in data set [15]. The “antifungal activity in screening” value in data set [16] was “active against all tested Candida spp”. Besides, the “effect in time–kill assay” value in data set [17] and in data set [18] was “fungicidal” throughout. In data set [19] (0.5, 1 and 2X MIC, 24 h), the “effect on growth in time–kill assay” value is “not affected; also recorded: did not show fungicidal activity”. Further, in data set [19] (2X MIC), the “lag-phase in time–kill assay” value was “extended lag-phase”. Besides, the MIC Range in data set [20] is 156 to 625 µg/mL. Also, the CC50 – broadly, the concentration giving 50% cytotoxicity – at 24 h in [21] was 428 µg/mL (≈ 2850 µM).
In the case of `Cc1ccc(C(C)C)cc1` [p-Cymene, p-cymene], the “Range MIC” value in data set [1] and in data set [2] was 128 to 256 µg/mL throughout. Moreover, the MIC in data set [1] stood at 181 µg/mL (≈ 1350 µM); in data set [2], 181 µg/mL (≈ 1350 µM); in data set [3] it was 256 µg/mL (≈ 1910 µM); in [4] it was 256 µg/mL (≈ 1910 µM); in data set [5] it was 256 µg/mL (≈ 1910 µM); in [6], 256 µg/mL (≈ 1910 µM). Also, the minimal inhibitory concentration (MIC) in data set [7] turned out to be 256 µg/mL (≈ 1910 µM); in data set [8] it was 256 µg/mL (≈ 1910 µM); in [10], 128 µg/mL (≈ 954 µM); in data set [11], 256 µg/mL (≈ 1910 µM); in data set [12], 256 µg/mL (≈ 1910 µM); in data set [13], 256 µg/mL (≈ 1910 µM). Moreover, the minimal inhibitory concentration (MIC) in data set [14] and in data set [15] was 256 µg/mL (≈ 1910 µM) each time. Moreover, the CC50 at 24 h in data set [21] stood at 831 µg/mL (≈ 6190 µM).

Values taken from paper PMC9606955, “In Vitro Activity of Essential Oils Distilled from Colombian Plants against Candida auris and Other Candida Species with Different Antifungal Susceptibility Profiles” (Molecules, 2022).
